# Experimental data reported in ChEMBL document CHEMBL3885861, “Open TG-GATES”.
# Species on record: Rattus norvegicus
# Test: Open TG-GATES - Regimen: Single
# Assay type: toxicity, organism-based, Sprague-Dawley
# Set-up: regimen Single, gender Male, age 6 weeks
# Conditions: in vivo, po, route gavage; for APTT / Bas / Eos / Fbg / Hb / Ht / Lym / MCH / MCHC / MCV / Mono / Neu / PT / Plat / RBC / Ret / WBC: tissue Blood; for KIDNEY_L / KIDNEY_R / KIDNEY_TOTAL: tissue Kidney; for LIVER: tissue Liver; for ALP / ALT / AST / BUN / CRE / Ca / Cl / DBIL / GLC / IP / K / LDH / Na / PL / RALB / TBIL / TC / TP / gamma-GTP: tissue Plasma
# [1] = 5 mg/kg, 3 h, dose level Middle
# [2] = 5 mg/kg, 6 h, dose level Middle
# [3] = 5 mg/kg, 9 h, dose level Middle
compound,measurement,setting,value
O=P1(N(CCCl)CCCl)NCCCO1 (stereo not given) [CYCLOPHOSPHAMIDE ANHYDROUS],TERMINAL_BW,"2 mg/kg, 24 h, dose level Low",197.9 g
same,APTT,"2 mg/kg, 24 h, dose level Low",22 s
same,Bas,"2 mg/kg, 24 h, dose level Low",0%
same,Eos,"2 mg/kg, 24 h, dose level Low",1%
same,Fbg,"2 mg/kg, 24 h, dose level Low",284.2 mg/dL
same,Hb,"2 mg/kg, 24 h, dose level Low",13.3 g/dL
same,Ht,"2 mg/kg, 24 h, dose level Low",39.7%
same,Lym,"2 mg/kg, 24 h, dose level Low",82%
same,MCH,"2 mg/kg, 24 h, dose level Low",21.1 pg
same,MCHC,"2 mg/kg, 24 h, dose level Low",33.5%
same,MCV,"2 mg/kg, 24 h, dose level Low",63 fL
same,Mono,"2 mg/kg, 24 h, dose level Low",2.2%
same,Neu,"2 mg/kg, 24 h, dose level Low",14.2%
same,PT,"2 mg/kg, 24 h, dose level Low",17 s
same,Plat,"2 mg/kg, 24 h, dose level Low",117.1 x10_4/uL
same,RBC,"2 mg/kg, 24 h, dose level Low",630.8 x10_4/ul
same,Ret,"2 mg/kg, 24 h, dose level Low",7%
same,WBC,"2 mg/kg, 24 h, dose level Low",74.3 x10_2/uL
same,KIDNEY_L,"2 mg/kg, 24 h, dose level Low",0.9 g
same,KIDNEY_R,"2 mg/kg, 24 h, dose level Low",0.9 g
same,KIDNEY_TOTAL,"2 mg/kg, 24 h, dose level Low",1.8 g
same,LIVER,"2 mg/kg, 24 h, dose level Low",9.1 g
same,ALP,"2 mg/kg, 24 h, dose level Low",1746.6 IU/L
same,ALT,"2 mg/kg, 24 h, dose level Low",44.6 IU/L
same,AST,"2 mg/kg, 24 h, dose level Low",72.8 IU/L
same,BUN,"2 mg/kg, 24 h, dose level Low",17.4 mg/dL
same,CRE,"2 mg/kg, 24 h, dose level Low",0.2 mg/dL
same,Ca,"2 mg/kg, 24 h, dose level Low",10.9 mg/dL
same,Cl,"2 mg/kg, 24 h, dose level Low",106 meq/L
same,DBIL,"2 mg/kg, 24 h, dose level Low",0 mg/dL
same,GLC,"2 mg/kg, 24 h, dose level Low",179.6 mg/dL
same,IP,"2 mg/kg, 24 h, dose level Low",7.5 mg/dL
same,K,"2 mg/kg, 24 h, dose level Low",4.5 meq/L
same,LDH,"2 mg/kg, 24 h, dose level Low",207.2 IU/L
same,Na,"2 mg/kg, 24 h, dose level Low",142.4 meq/L
same,PL,"2 mg/kg, 24 h, dose level Low",139.6 mg/dL
same,RALB,"2 mg/kg, 24 h, dose level Low",3 g/dL
same,TBIL,"2 mg/kg, 24 h, dose level Low",0.006 mg/dL
same,TC,"2 mg/kg, 24 h, dose level Low",70.6 mg/dL
same,TP,"2 mg/kg, 24 h, dose level Low",5.5 g/dL
same,gamma-GTP,"2 mg/kg, 24 h, dose level Low",0.8 IU/L
same,TERMINAL_BW,[1],186.6 g
same,APTT,[1],22.8 s
same,Bas,[1],0%
same,Eos,[1],0.8%
same,Fbg,[1],290.2 mg/dL
same,Hb,[1],12.9 g/dL
same,Ht,[1],39%
same,Lym,[1],83.6%
same,MCH,[1],21.1 pg
same,MCHC,[1],33.2%
same,MCV,[1],63.7 fL
same,Mono,[1],1.4%
same,Neu,[1],13.6%
same,PT,[1],15.6 s
same,Plat,[1],113 x10_4/uL
same,RBC,[1],611.6 x10_4/ul
same,Ret,[1],8.1%
same,WBC,[1],60.2 x10_2/uL
same,KIDNEY_L,[1],0.8 g
same,KIDNEY_R,[1],0.9 g
same,KIDNEY_TOTAL,[1],1.7 g
same,LIVER,[1],8.3 g
same,ALP,[1],1552.4 IU/L
same,ALT,[1],44.4 IU/L
same,AST,[1],73.4 IU/L
same,BUN,[1],11.2 mg/dL
same,CRE,[1],0.1 mg/dL
same,Ca,[1],10.6 mg/dL
same,Cl,[1],106.4 meq/L
same,DBIL,[1],0 mg/dL
same,GLC,[1],180.6 mg/dL
same,IP,[1],9 mg/dL
same,K,[1],4 meq/L
same,LDH,[1],175.2 IU/L
same,Na,[1],143.8 meq/L
same,PL,[1],137.6 mg/dL
same,RALB,[1],3 g/dL
same,TBIL,[1],0.034 mg/dL
same,TC,[1],81.4 mg/dL
same,TP,[1],5.4 g/dL
same,gamma-GTP,[1],1 IU/L
same,TERMINAL_BW,[2],189.8 g
same,APTT,[2],22.5 s
same,Bas,[2],0%
same,Eos,[2],0.4%
same,Fbg,[2],311.4 mg/dL
same,Hb,[2],13.1 g/dL
same,Ht,[2],39.4%
same,Lym,[2],78%
same,MCH,[2],21.1 pg
same,MCHC,[2],33.2%
same,MCV,[2],63.6 fL
same,Mono,[2],2.8%
same,Neu,[2],17.8%
same,PT,[2],16.1 s
same,Plat,[2],130.3 x10_4/uL
same,RBC,[2],618.8 x10_4/ul
same,Ret,[2],7.9%
same,WBC,[2],86.9 x10_2/uL
same,KIDNEY_L,[2],0.9 g
same,KIDNEY_R,[2],0.9 g
same,KIDNEY_TOTAL,[2],1.8 g
same,LIVER,[2],8.4 g
same,ALP,[2],1359.6 IU/L
same,ALT,[2],39.6 IU/L
same,AST,[2],66.8 IU/L
same,BUN,[2],8.2 mg/dL
same,CRE,[2],0.1 mg/dL
same,Ca,[2],10.7 mg/dL
same,Cl,[2],107.6 meq/L
same,DBIL,[2],0 mg/dL
same,GLC,[2],172 mg/dL
same,IP,[2],9.5 mg/dL
same,K,[2],4.1 meq/L
same,LDH,[2],162.6 IU/L
same,Na,[2],143.2 meq/L
same,PL,[2],139.4 mg/dL
same,RALB,[2],2.8 g/dL
same,TBIL,[2],0.03 mg/dL
same,TC,[2],77.8 mg/dL
same,TP,[2],5.3 g/dL
same,gamma-GTP,[2],1 IU/L
same,TERMINAL_BW,[3],193 g
same,APTT,[3],20.2 s
same,Bas,[3],0%
same,Eos,[3],1%
same,Fbg,[3],309 mg/dL
same,Hb,[3],12.6 g/dL
same,Ht,[3],37.9%
same,Lym,[3],71.6%
same,MCH,[3],21.1 pg
same,MCHC,[3],33.3%
same,MCV,[3],63.3 fL
same,Mono,[3],2.6%
same,Neu,[3],24.4%
same,PT,[3],16.3 s
same,Plat,[3],115.7 x10_4/uL
same,RBC,[3],599.6 x10_4/ul
same,Ret,[3],8.6%
